Patent publication US7598079B2, “Assay for identifying compounds which affect stability of mRNA” (Novation Pharmaceuticals, Inc., priority 1998, dated 2009)
Where two headings read alike, the source gives them in different places. Numbered stars: 1 amine (or outer) side, 2 acyl side, 3 side chain; on linkers, the order of the positions; unused ones are H or OH. Bridge positions count the residues as written; N and C are the ends. Square brackets hold non-standard residues; d marks the D form. Peptide text beside a SMILES is read from it. I, II: the chains in the order shown. Actinocin(9to1) = Cc1c2oc3c(C)ccc(C(=O)[*:1])c3nc-2c(C(=O)[*:2])c(N)c1=O; NMeV = CN[C@H](C(=O)O)C(C)C; Sar = CNCC(=O)O

Columns and labels:
Type in all cases: cell-based, human
[1] = tested on: THP-1 control clone No. 53 (luciferase mRNA without instability sequence); assay: Luciferase reporter gene assay, control clone No. 53 (pGL2_Neo, no instability sequence); details: for Luciferase Activity (% of Control) Clone No. 53: compound 1 μM, differentiated cells; for Luciferase Activity Clone 53 γIFN/LPS stimulated: γIFN/LPS stimulated cells, mean of three experiments
Text: (§1) In order to obtain a vector for stable integration into THP-1 cells, a XhoI-SaII fragment of the neo resistant gene (expressing aminoglycoside 3′phosphotransferase) derived from pMC1neoPolyA (Stratagene) was subcloned into the SaII site of pGL2-Control (Promega). This resulting plasmid was called pGL2_Neo. A 30 bp fragment (containing three tandem AUUUA motifs and flanking IL-1β 3′UTR sequence) obtained by annealing two complementary synthetic oligonucleotides (see FIG. 2) was subcloned into pGL2_Neo using the PflMI restriction site. […] The lacZ gene was obtained from a HindIII/BamHI restriction digest of pSV-beta-Galactosidase (Promega) and subcloned into the HindIII/BamHI site of pGL2-Control (Promega).
(§2) THP-1 cells were then cotransfected with either pGL2_Neo and pGL2-β-galactosidase vectors (to generate control cell lines) or with pGL2_Neo30 and pGL2-β-galactosidase vectors by electroporation. 10^7 cells/ml in 1.3 mM KH2PO4, 7.36 mM Na2HPO4, 2.44 mM KCl, 124 mM NaCl, 5 mM glucose, 9.64 μM MgCl2 and 16 μM CaCl2 pH 7.2 were transfected with 20 μg of DNA in a Bio-Rad Gene Pulser (250V, 690 μF and indefinite resistance) using a 0.4 cm cuvette. Cells were subsequently cultured in RPMI medium containing 10% FBS, 2 mM L-Gln (L-glutamine), 50 μM 2-mercaptoethanol and 600 μg/ml of G418 (geneticin). After transfection of pGL2_Neo30 and pGL2_Neo into THP-1 cells, G418 resistant stable cell lines were obtained by selection with G418 and assayed for luciferase activity. Cotransfected cell lines were also assayed for β-galactosidase activity which can serve as an internal control (see Example 5 below). One cell line of each transfection was chosen for further analysis; the pGL2_Neo30/pGL2-β-galactosidase cell line was referred to as clone No. 63 and the pGL2_Neo/pGL2-β-galactosidase cell line as clone No. 53. No endogenous luciferase activity could be detected in normal THP-1 cells.
(§3) The transfected human monocytic leukaemia cell lines, clones No. 53 and 63 are grown in RPMI medium supplemented with 110 U/ml penicillin, 100 μg/ml streptomycin, 2 mM L-Gln and 2 g/l NaHCO3. Heat-treated FBS (5%) is added before use. The cells are grown to a density of 5×10^5/ml and induced to differentiate with 100 U/ml (final concentration) γIFN. Three hours later, 10 μl of LPS (5 μg/ml final concentration) is added. This time point is designated time 0. Compounds are added at various times after LPS addition as indicated.
(§4) In order to adapt the system to the use of 96 well plates, cells were grown in Packard flat bottom white polystyrene microplates (Cat. No. 6005180) in RPMI medium lacking phenol red (AMIMED). Cells were plated at 5×10^4/well. After treatment of the cells, luciferase was measured using the Packard Luc Lite system (Cat. No. 601691 1) according to the manufacturer's instructions in a final volume of 205 μl. Briefly, to a cell suspension of 5×10^5 cells/ml, γIFN (1000 U/ml, Boehringer Mannheim, No. 1050494) to a final concentration of 100 U/ml and 0.25% (v/v) Luc Lite Enhancer was added. After a 3 hour incubation LPS (50 μg/ml Sigma, L-8274) was added to give 5 μg/ml final concentration. The cells were then plated at 5×10^4/100 μl/well into flat bottom white polystyrene microplates (Packard, Cat. No. 6005180) and incubated for 16 hours. 5 μl of compound solution or control vehicle was then added and the cells were further incubated as indicated. 100 μl of luciferase substrate solution was added and the plates were covered with TopSeal-A press-on adhesive sealing film (Packard Cat. No. 6005185) before measuring luminescence with a Packard Top Count Scintillation Counter at 22° C. The luciferase signal was stable for at least 90 min.
(§5) The THP-1 cell lines, clone Nos. 63 and 53 are grown, differentiated with γIFN and stimulated with LPS identical to normal THP-1 cells. Radicicol analog A was added 16 hours after the addition of LPS and cell extracts were then taken 8 hours later or as indicated. […]

[2] = tested on: THP-1 clone No. 63 (luciferase mRNA with IL-1β 3′UTR instability sequence, three tandem AUUUA motifs); assay: Luciferase reporter gene assay, clone No. 63 (pGL2_Neo30 with 30 bp IL-1β 3′UTR mRNA instability sequence); details: for Luciferase Activity (% of Control) Clone No. 63: compound 1 μM; for Luciferase Activity (% of Control) Clone No. 63 / Effect on mRNA stability in the assay (Table 3 summary): differentiated cells; for Effect on mRNA stability in the assay (Table 3 summary): clone 63 versus clone 53; for Luciferase Activity Clone 63 γIFN/LPS stimulated: γIFN/LPS stimulated cells, mean of three experiments; for inhibition at 1 µM: Homo sapiens, THP-1
Text: as §1, §2, §3, §4, §5

[3] = tested on: THP-1 clone 53 (pGL2-β-galactosidase, lacZ without mRNA instability sequences); assay: β-galactosidase internal control activity, clone 53; details: mean of three experiments; for β-galactosidase activity Clone 53 Unstimulated: unstimulated cells; for β-galactosidase activity Clone 53 γIFN/LPS stimulated: γIFN/LPS stimulated cells
Text: as §1, §2
(§6) In the previous examples, test compounds were assayed by comparing their activity in two separate cell lines (clone Nos. 53 and 63). However, clone 63 was cotransfected with two separate plasmids: one plasmid (pGL2_Neo30) contained the luciferase gene with the 30 bp instability sequence driven by the SV40 promoter and the other plasmid (pGL2-β-galactosidase, FIG. 3B) contained the lacZ gene driven by the SV40 promoter but contained no mRNA instability sequences. The β-galactosidase activity of this cell line should not be affected by exposure of the cells to compounds which promote mRNA instability via mRNA instability sequences. As a result, one should be able to screen for compounds having mRNA instability activity by simply comparing luciferase activity in unstimulated cells versus stimulated cells and comparing the β-galactosidase activity in these same cells. […]

[4] = tested on: THP-1 clone No. 63 (luciferase mRNA with IL-1β 3′UTR instability sequence, three tandem AUUUA motifs); assay: Luciferase reporter gene assay, clone No. 63 (pGL2_Neo30 with 30 bp IL-1β 3′UTR mRNA instability sequence); details: for Luciferase Activity Clone 63 Unstimulated: unstimulated cells, mean of three experiments
[5] = tested on: IL-1β-AU cDNA derived RNA (3′ UTR AREs deleted) in THP-1 cells; assay: RNase protection analysis of IL-1β-AU (ARE-deleted) RNA in stably transfected THP-1 cells; details: THP-1 cells stably transfected with IL-1β-AU construct
Text: For examples 1-5, the segment of 3′ UTR of IL-1β which contains all the AREs was deleted and the resulting IL-1β-AU cDNA was subcloned into an expression vector.

[6] = tested on: THP-1 clone 63 (pGL2-β-galactosidase, lacZ without mRNA instability sequences); assay: β-galactosidase internal control activity, clone 63; details: mean of three experiments; for β-galactosidase activity Clone 63 Unstimulated: unstimulated cells; for β-galactosidase activity Clone 63 γIFN/LPS stimulated: γIFN/LPS stimulated cells
Text: as §1, §2, §6

[7] = tested on: THP-1 control clone No. 53 (luciferase mRNA without instability sequence); assay: Luciferase reporter gene assay, control clone No. 53 (pGL2_Neo, no instability sequence); details: 10 μM; unstimulated cells; mean of three experiments
[8] = tested on: THP-1 clones No. 53 and 63 (luciferase); assay: Half life of luciferase mRNA and protein after addition of compounds, clones No. 53 and 63; details: after 8 hours level comparable to radicicol analog A (1 μM)
Text: To measure mRNA degradation using luciferase protein activity it is important to know the half life of the luciferase enzyme in order to determine an optimal time for assaying for potential mRNA destabilizing agents by way of luciferase protein stability. The possibility exists that mRNA could be degraded but due to a long half life of the protein, high enzyme activities could persist. Therefore we analyzed luciferase activities after addition of the transcriptional inhibitor actinomycin D (act. D) or the translational inhibitor cycloheximide (CHX). […] In view of this relatively short half life of the luciferase enzyme, it is safe to assess substances for activity on mRNA degradation as early as 8 hours after compound addition.

Q: With `C=C(C/C=C/C(C)(C)O)[C@@H]1CC[C@]2(C)[C@@H]1CC[C@@H]1[C@@]3(C)CC[C@H](O)C(C)(C)[C@@H]3CC[C@]12C` [(17α)-23-(E)-dammara-20,23-dien-3β,25-diol] as the compound, how does the “Luciferase Activity (% of Control) Clone No. 53” value [1] read?
A: Its value is 116 % of Control.

Q: And the “Luciferase Activity (% of Control) Clone No. 63” value [2]?
A: Its value is 91 % of Control.

Q: Which results are given for `C[C@@H]1C[C@H]2[C@@H]3CCC4=CC(=O)C=C[C@]4(C)[C@@]3(F)[C@@H](O)C[C@]2(C)[C@@]1(O)C(=O)CO` [Dexamethasone]?
A: Luciferase Activity (% of Control) Clone No. 53 [1]: 72 % of Control; Luciferase Activity (% of Control) Clone No. 63 [2]: 63 % of Control

Q: What does the source list for `COc1cc(O)c2c(c1OC)/C=C/C[C@H](O)[C@H](O)C(=O)/C=C\C[C@H](C)OC2=O` [Radicicol analog A, radicicol analog A]?
A: Luciferase Activity Clone 53 γIFN/LPS stimulated ([1]; 1 μM): 88 % control; Luciferase Activity Clone 53 γIFN/LPS stimulated ([1]; 10 μM): 63 % control; Luciferase Activity (% of Control) Clone No. 53 [1]: 120 % of Control; Effect on control clone (No. 53) at high concentrations (cytotoxicity or inhibitory activity on transcription) ([1]; concentrations higher than 5×10^−6 M): also inhibited the control clone; Effect on luciferase activity of control clone No. 53 ([1]; up to 5×10^−6M): no effects; Effect on mRNA stability in the assay (Table 3 summary) ([2]; 1 μM): clear effect on mRNA stability; Luciferase Activity Clone 63 γIFN/LPS stimulated ([2]; 1 μM): 7 % control; Luciferase Activity Clone 63 γIFN/LPS stimulated ([2]; 10 μM): 2 % control; inhibition at 1 µM ([2]; 1 μM, differentiated clone No. 63, 8 hours, read-out: Inhibition of luciferase activity, greatest in some cases): 93%; inhibition at 1 µM ([2]; 1 μM, differentiated clone No. 63, added 16 h after LPS, extracts 8 hours later, read-out: Inhibition of luciferase activity, on average): 50%; Luciferase Activity (% of Control) Clone No. 63 [2]: 49 % of Control; Concentration dependence of luciferase inhibition in differentiated clone No. 63 ([2]; differentiated clone No. 63, 8 hr. treatment (FIG. 8)): Concentration dependent inhibition of luciferase activity; β-galactosidase activity Clone 53 Unstimulated ([3]; 1 μM): 99 % control; β-galactosidase activity Clone 53 γIFN/LPS stimulated ([3]; 1 μM): 98 % control; β-galactosidase activity Clone 53 Unstimulated ([3]; 10 μM): 103 % control; β-galactosidase activity Clone 53 γIFN/LPS stimulated ([3]; 10 μM): 62 % control; Reduction of luciferase activity in undifferentiated clone No. 63 ([4]; 1 μM, undifferentiated cells, 8 hr. treatment): only a limited reduction of luciferase activity; Luciferase Activity Clone 63 Unstimulated ([4]; 1 μM): 63 % control; Luciferase Activity Clone 63 Unstimulated ([4]; 10 μM): 11 % control; Response of AU-less derived RNA to compound (RNase protection) [5]: showed resistance; β-galactosidase activity Clone 63 Unstimulated ([6]; 1 μM): 96 % control; β-galactosidase activity Clone 63 γIFN/LPS stimulated ([6]; 1 μM): 97 % control; β-galactosidase activity Clone 63 Unstimulated ([6]; 10 μM): 84 % control; β-galactosidase activity Clone 63 γIFN/LPS stimulated ([6]; 10 μM): 70 % control; Luciferase Activity Clone 53 Unstimulated [7]: 87 % control

Q: Which “Luciferase Activity (% of Control) Clone No. 53” value [1] does the source give for `O=C1CCC(N2C(=O)c3ccccc3C2=O)C(=O)N1` (centres unmarked) [Thalidomide] here?
A: The value was 98 % of Control.

Q: What about the “Luciferase Activity (% of Control) Clone No. 63” value [2] of the same compound?
A: Its value is 112 % of Control.

Q: Which “Luciferase activities after addition of transcriptional inhibitor” value ([8]; 20 μg/ml) does the source give for `Cc1c2oc3c(C)ccc(C(=O)N[C@@H]4C(=O)N[C@H](C(C)C)C(=O)N5CCC[C@H]5C(=O)N(C)CC(=O)N(C)[C@@H](C(C)C)C(=O)O[C@@H]4C)c3nc-2c(C(=O)N[C@@H]2C(=O)N[C@H](C(C)C)C(=O)N3CCC[C@H]3C(=O)N(C)CC(=O)N(C)[C@@H](C(C)C)C(=O)O[C@@H]2C)c(N)c1=O` [actinomycin D] (I: T[dV]P[Sar][NMeV] / II: T[dV]P[Sar][NMeV]; ester I:1-I:C, II:1-II:C; linker I:N-II:N via Actinocin(9to1)) here?
A: The value was “rapidly declined”.

Q: For `C[C@@H]1C[C@@H]([C@H](O)CC2CC(=O)NC(=O)C2)C(=O)[C@@H](C)C1` [cycloheximide], which “Luciferase activities after addition of translational inhibitor” value ([8]; 20 μM) is on record?
A: Its value is “rapidly declined”.

Q: What does the source list for Radicicol?
A: Luciferase Activity (% of Control) Clone No. 53 [1]: 98 % of Control; Effect on mRNA stability in the assay (Table 3 summary) ([2]; 1 μM): clear effect on mRNA stability; Luciferase Activity (% of Control) Clone No. 63 [2]: 47 % of Control

Q: How did the “Luciferase Activity (% of Control) Clone No. 53” value [1] turn out when Stemphon was run?
A: The value was 95 % of Control.

Q: What about the “Luciferase Activity (% of Control) Clone No. 63” value [2] of the same compound?
A: Its value is 90 % of Control.
